In test [1] the target is T1, Heat shock factor protein 1 (Mus musculus, UniProt P38532).
T1 sequence (P38532 whole entry): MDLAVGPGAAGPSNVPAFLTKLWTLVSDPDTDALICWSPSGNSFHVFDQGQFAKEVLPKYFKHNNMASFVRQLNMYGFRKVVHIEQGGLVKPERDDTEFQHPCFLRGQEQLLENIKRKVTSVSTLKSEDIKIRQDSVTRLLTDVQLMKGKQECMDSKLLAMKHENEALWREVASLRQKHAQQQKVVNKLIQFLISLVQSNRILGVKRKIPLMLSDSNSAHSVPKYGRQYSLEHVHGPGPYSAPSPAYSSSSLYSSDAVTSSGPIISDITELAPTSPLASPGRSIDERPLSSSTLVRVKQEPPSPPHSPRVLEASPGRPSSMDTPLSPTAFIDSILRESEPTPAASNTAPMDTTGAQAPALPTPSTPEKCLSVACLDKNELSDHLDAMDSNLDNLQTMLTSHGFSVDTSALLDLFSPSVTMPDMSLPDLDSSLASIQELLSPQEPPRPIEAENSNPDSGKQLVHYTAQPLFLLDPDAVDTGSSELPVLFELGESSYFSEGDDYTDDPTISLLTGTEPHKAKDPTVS
Put plainly: enhancement of HSF1-driven luciferase signal – cell-based, NIH3T3, luminescence, dose retest, confirmation (AID 435004).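 Further: stress induced by proteasome inhibitor MG132 added 30 min after compound; luciferase reporter driven by HSF1 response element in NIH3T3 cells; actives raise luminescence as potentiators of the MG132 stress response.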 The class given is functional.

For another test, the target named is Cytochrome P450 2C19 (Homo sapiens, UniProt P33261). Put plainly: Cytochrome panel assay with activity outcomes. Panel member name: p450-cyp2c19 Compounds with AC50 equal or less than 10 uM are considered active. The class given is functional. The conditions noted are these: read-out: AC50.
The nature of test [2]: viability of uninfected HEp-2 cells – cell-based, HTS, cytotoxicity control for RSV inhibitor project, dose response (AID 2410). It is filed as functional. Conditions: human respiratory syncytial virus.
Test [3] can be described thus: Trypanosoma cruzi growth suppression in host cells – NIH3T3 host cells, beta-gal luminescence, confirmation (AID 2044).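 Further: intracellular parasites grown in NIH/3T3 mouse fibroblasts as host cells; luminescent beta-galactosidase reporter signal from transgenic T. cruzi replicating inside host cells; inhibitors lower the luminescence signal.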 The class given is functional, cell-based.
Test [4] in a line: NIH3T3 cell viability loss – ATP luminescence, mouse fibroblasts, counter-screen, dose response (AID 2010).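 Further: cells exposed to compound for about 90 hours before reading.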 It is filed as functional, cell-based. In general terms: The purpose of a counterscreen is to sort out artefacts and off-target activity.
A further test deals with T2, Streptokinase A (Streptococcus pyogenes serotype M1, UniProt P10520).
T2 sequence (P10520 whole entry): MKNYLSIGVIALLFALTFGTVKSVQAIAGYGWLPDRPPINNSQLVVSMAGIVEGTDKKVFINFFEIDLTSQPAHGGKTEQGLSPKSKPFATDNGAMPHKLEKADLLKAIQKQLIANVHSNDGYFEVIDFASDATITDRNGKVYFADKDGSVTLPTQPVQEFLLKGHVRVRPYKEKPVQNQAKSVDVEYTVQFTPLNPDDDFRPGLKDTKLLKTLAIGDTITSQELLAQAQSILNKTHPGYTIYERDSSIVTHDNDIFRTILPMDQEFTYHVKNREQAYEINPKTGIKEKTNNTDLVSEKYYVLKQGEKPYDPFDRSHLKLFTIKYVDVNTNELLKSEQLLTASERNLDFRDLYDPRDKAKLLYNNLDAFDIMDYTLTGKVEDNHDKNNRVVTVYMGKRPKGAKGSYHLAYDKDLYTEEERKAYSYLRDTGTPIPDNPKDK
Put plainly: viability-normalized secreted streptokinase activity reduction – plasminogen activation absorbance, OD405, dose response (AID 1914).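 Further: secreted streptokinase activity via plasminogen activation per viability signal from cell pellet.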 It is filed as functional, Streptococcus pyogenes M1 GAS.

For a further test, the system named is Streptococcus. Put plainly: GAS UMAA2166 growth inhibition – luminescence, BacTiterGlo, counter-screen for streptokinase expression inhibitor project, dose response (AID 1915).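 Further: potency for reduction of bacterial viability or growth.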 It is filed as functional, organism-based.
The test system of test [5] is Streptococcus sp. 'group A'. Put plainly: Streptococcus pyogenes SK(-)GAS viability under kanamycin – luminescence, BacTiterGlo, confirmation, counter-screen for streptokinase expression inhibitor project, dose response (AID 1900). The class given is functional, organism-based.

Calls of active or inactive are those of the source.

Chain of Cytochrome P450 2C19 (P33261 whole entry): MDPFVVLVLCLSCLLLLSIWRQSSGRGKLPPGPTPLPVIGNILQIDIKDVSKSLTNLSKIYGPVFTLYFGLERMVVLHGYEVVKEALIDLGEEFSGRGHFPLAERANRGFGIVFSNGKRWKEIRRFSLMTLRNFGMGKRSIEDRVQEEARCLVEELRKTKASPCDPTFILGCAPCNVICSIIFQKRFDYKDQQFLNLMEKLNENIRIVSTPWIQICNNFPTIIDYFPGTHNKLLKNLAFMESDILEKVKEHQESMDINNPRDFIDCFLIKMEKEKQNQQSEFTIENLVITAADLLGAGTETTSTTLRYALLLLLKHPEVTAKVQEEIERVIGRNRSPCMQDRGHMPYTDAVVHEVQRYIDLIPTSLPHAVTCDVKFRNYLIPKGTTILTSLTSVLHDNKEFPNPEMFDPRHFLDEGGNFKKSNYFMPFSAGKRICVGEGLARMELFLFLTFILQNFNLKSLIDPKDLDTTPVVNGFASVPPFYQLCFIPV

As usually defined, the EC50 is the concentration giving half of the maximal effect. With `Cc1ccc(C)c(S(=O)(=O)N2CCN(CC(=O)Nc3cc(C)on3)CC2)c1`, the EC50 in test [1] was > 260 µM (inactive).

The AC50 is the midpoint of the concentration-response curve, whichever way the signal moves. With `Cc1cc(OC(=O)c2ccccc2Br)cc(=O)n1C`, the AC50 on Cytochrome P450 2C19 was 39.8 µM (inconclusive). For the molecule `N#CCCN1CCN(C(=S)c2ccc(-c3ccc(Cl)c(Cl)c3)o2)CC1`, in test [1], the concentration for a half-maximal effect (EC50) was 3.72 µM (active). For orientation: CC50 means the concentration that lowers cell viability or growth by half. As to `C=CCn1c(-c2ccc(Cl)cc2)ccc(C#N)c1=O`, the half-maximal cytotoxic concentration (CC50) in test [2] is > 50 µM (active). Consider `CC(Oc1ccc(Cl)cc1Cl)C(=O)NCCCCc1ccccc1` (centres undefined), for which the EC50 in test [1] was > 260 µM (inactive). In the case of `COc1ccc(-c2ncc(CN3CCN(CCC(C)C)C(CCO)C3)cn2)cc1` (centres undefined), the concentration for a half-maximal effect (EC50) is 0.933 µM (active) in test [3] and 12.3 µM (active) in test [4]. In the case of `CC(=O)c1ccc(N=C(S)N2C(C)CCCC2C)cc1` (centres undefined), the EC50 in test [1] is > 260 µM (inactive). As for `O=C(NC12CC3CC(CC(C3)C1)C2)c1ccc(-c2ccc(Br)cc2)o1`, the concentration giving a half-maximal response (EC50) on Streptokinase A was 35.3 µM (active); in the test on Streptococcus, 9.47 µM (active); in test [5], 4.59 µM (active). As to `O=C(O)CSc1nc2ccccc2nc1Cc1ccccc1F`, the EC50 in test [1] is > 260 µM (inactive). Still for that read-out and setting: the figure for `C/C(=N\Nc1nc(C)cc(-c2ccccc2)n1)c1ccc(C)o1` is > 260 µM (inactive). In the case of `CC(=O)c1cccc(S(=O)(=O)N2CCCC(c3nc(O)c4nnn(Cc5cccc(Cl)c5)c4n3)C2)c1` (centres undefined), the half-maximal cytotoxic concentration (CC50) in test [2] was > 50 µM (active). Take `CCCC(=O)Nc1cc(-c2nn(C)c(=O)c3ccccc23)ccc1OC`: in test [1], the EC50 was > 260 µM (inactive).

In the case of `COc1ccc(C2CC(=O)c3c(C)nc(N4CCN(Cc5ccccc5)CC4)nc3C2)cc1OC` (centres undefined), the EC50 in test [3] is 1.85 µM (active); in test [4] it was > 60 µM (not active). `COc1ccccc1NS(=O)(=O)c1cc(NC(S)=NCC2CCCO2)ccc1C` (centres undefined): the EC50 (in the test with Streptococcus; in test [5]) was > 150 µM (not active) throughout. Consider `COc1ccc(-c2ccc([C@H]3[C@@H]4C=CCC[C@@]4(C)C(=O)N3Cc3ccccc3)c(F)c2)cc1OC`, for which the EC50 is 2.55 µM (active) in test [3] and 37.1 µM (active) in test [4]. Consider `C#C[C@@]1(O)CC[C@@H]2[C@@H]3CCC4=CC(=O)CC[C@@H]4[C@H]3CC[C@]21CC`, for which, at Cytochrome P450 2C19, the AC50 is 0.0794 µM (inconclusive). Consider `COc1ccc(Cl)cc1C(=O)NNC(=S)NC(=O)c1cc(-c2ccc(Cl)cc2)nc2ccccc12`, for which the concentration for a half-maximal effect (EC50) with Streptococcus is 6 µM (active); in test [5] it was 0.202 µM (active). Turning to `CCN(CCCC(=O)c1ccc(F)cc1)CCc1ccccc1`, the half-maximal effective concentration (EC50) was 0.111 µM (active) in test [3] and > 60 µM (not active) in test [4]. On to `COc1ccc(-c2cc(-c3ccc(Cl)cc3)[nH]n2)c(O)c1`, for which the results for the EC50 (on Streptokinase A; in the test with Streptococcus; in test [5]) were > 150 µM (not active), 9.14 µM (active) and 7.27 µM (active), respectively. Regarding `Nc1c(Cl)cc(-c2csc(N3CCCC3c3nc4cc(Cl)c(Cl)cc4n3CCCO)n2)cc1Cl` (centres undefined), in test [2], the CC50 is 35.1 µM (active). Consider `Cc1ccccc1OCCCC(=O)Nc1ccccc1C(F)(F)F`, for which the EC50 in test [1] was > 260 µM (inactive). On the same count and under the same terms, to `Cc1ccccc1Oc1nc2c(C)cccn2c(=O)c1/C=C(\C#N)C(=O)Nc1c(C)n(C)n(-c2ccccc2)c1=O` belongs 12.1 µM (active); to `COc1ccccc1OCc1nnc(SCCN2CCOCC2)o1`, > 260 µM (inactive).

On to `Cc1cccc(C(=O)N2CCC(=O)N(C(COCc3ccc(Cl)cc3)Cc3ccccc3)CC2)c1` (centres undefined), for which, in test [2], the CC50 is 19.6 µM (active).

Consider `COc1cc(C(=O)NCC(c2cccnc2)N2CCN(c3ccc(F)cc3)CC2)cc(OC)c1OC` (centres undefined), for which the EC50 in test [3] is 0.959 µM (active); in test [4], > 30 µM (not active).

Take `CC(Oc1cccc(Cl)c1)C(=O)Nc1ccccc1N1CCCCC1` (centres undefined): the EC50 at Streptokinase A was 13.5 µM (active); with Streptococcus it was 26.4 µM (active); in test [5], 9.74 µM (active).

Turning to `COc1cc(C(=O)NCC(c2cccs2)N2CCc3ccccc32)cc(OC)c1OC` (centres undefined), the CC50 in test [2] is 18 µM (active).

As to `Cc1sc(NC(=O)c2c(F)cccc2F)nc1-c1ccccc1`, the CC50 in test [2] is 43.2 µM (active). With `Cc1cc(OCCCn2ccnc2)ccc1C(C)C`, the EC50 in test [3] was 1.99 µM (active); in test [4], > 60 µM (not active). For the molecule `CCN(C(=O)c1cc2c(s1)-c1ccccc1OC2)c1cc(OC)ccc1OC`, in test [2], the CC50 was 26.8 µM (active). As for `C=CCOc1ccc(-c2nc3c(c(=O)[nH]c(=O)n3Cc3ccccc3)n2CCCOC)cc1`, in test [1], the EC50 was > 260 µM (inactive). Still for that read-out and setting: the figure for `COc1ccc(C2C(C(C)=O)=C(O)C(=O)N2c2ccc(C)cc2)cc1` (centres undefined) is > 260 µM (inactive). As to `CCN(CC)CCCNC(=O)c1ccc(OCC(=O)Nc2ccccc2C(F)(F)F)c(OC)c1`, the values for the EC50 in test [3] and in test [4] were 1.95 µM (active) and > 30 µM (not active), respectively.

On to `Cc1ccc2nc(-c3ccncc3)c(NC3CCCC3)n2c1`, for which the EC50 in test [3] was 2.29 µM (active); in test [4] it was > 60 µM (not active). In the same order, the values of `Cc1cc(C)cc(Nc2ccc([N+](=O)[O-])nc2[N+](=O)[O-])c1` are 1.63 µM (active) and > 60 µM (not active).

For the molecule `CC(C)(C)c1[nH]ncc1[N+](=O)[O-]`, the EC50 in test [1] was > 260 µM (inactive). For the molecule `O=C(Nc1ncc(Cc2cccc(C(F)(F)F)c2)s1)c1ccc(-c2cccc([N+](=O)[O-])c2)o1`, the EC50 in test [3] is 1.73 µM (active); in test [4], 9.52 µM (active). The matching figures for `Cc1ccc(C)c(N2CCN(C(=O)CCC(=O)N3CCOc4ccc(Cl)cc43)CC2)c1`: 2.47 µM (active) and > 60 µM (not active). For `COc1ccccc1NS(=O)(=O)c1cc(NC(=S)NCC2CCCO2)ccc1C` (centres undefined), the EC50 on Streptokinase A is given as > 150 µM (not active). On to `Brc1c[nH]c2nc(SC/C=C/c3ccccc3)nc-2c1`, for which, in test [1], the EC50 was 1.37 µM (active). Consider `CCCC(CCC)C(=O)OC[N+](C)(C)CCOC(=O)C(O)(c1ccccc1)C1CCCC1` (centres undefined), for which the EC50 is 1.31 µM (active) in test [3] and > 60 µM (not active) in test [4]. Consider `C/C(=N\NC(=O)c1ccccc1N)c1ccc(NC(=O)Cc2ccccc2)cc1`, for which the EC50 on Streptokinase A was > 150 µM (not active); in the test with Streptococcus it was 16.3 µM (active); in test [5], 3.07 µM (active). On to `Cc1ccccc1N=C(S)N(Cc1cccnc1)Cc1ccccc1Cl`, for which the results for the EC50 in test [3] and in test [4] were 0.8 µM (active) and > 60 µM (not active), respectively. As to `Cc1cc(-c2ccccc2)c2c(O)[nH]nc2n1`, the CC50 in test [2] is 48.2 µM (active). The same measure, in the same setting: the figure for `CCNc1nc(NC(C)C)nc(N(C#N)C(C)C(=O)N(CC)CC)n1` (centres undefined) is 28.8 µM (active). Regarding `Cc1nc(N2CCN(Cc3ccc4c(c3)OCO4)CC2)c2cc(-c3ccccc3)sc2n1`, the values for the concentration giving a half-maximal response (EC50) (at Streptokinase A; with Streptococcus; in test [5]) were > 150 µM (not active), 112 µM (active) and 19.3 µM (active), respectively. For the molecule `O=C(Nc1nc2c(s1)CN(Cc1ccccc1)CC2)c1c(F)cccc1F`, in test [2], the CC50 is 16.1 µM (active). In the case of `COc1ccc(-n2c(=S)[nH]c3cc(C(=O)Nc4ccc(C)c(F)c4)ccc3c2=O)c(OC)c1`, the EC50 on Streptokinase A was > 150 µM (not active); with Streptococcus it was 14.8 µM (active); in test [5], 9.84 µM (active). Consider `C=CCn1sc(N)c(C(=O)OCC)c1=S`, for which the CC50 in test [2] is 24 µM (active). As to `OCCC1CN(Cc2cc3c(cc2Cl)OCO3)CCN1Cc1ccccc1` (centres undefined), the figures for the EC50 in test [3] and in test [4] were 1.21 µM (active) and > 60 µM (not active), respectively.

On to `Cc1ccc2nc(-c3ccncc3)c(NC3CCCCC3)n2c1`, for which the concentration for a half-maximal effect (EC50) in test [3] was 1.86 µM (active); in test [4], > 60 µM (not active). On to `Nc1nc(-c2cccnc2)nc2sc3c(c12)CCCC3`, for which the CC50 in test [2] is > 50 µM (active). Take `CCN1CCN(C(CNS(=O)(=O)c2ccc(C)cc2)c2cccnc2)CC1` (centres undefined): the half-maximal effective concentration (EC50) (on Streptokinase A; in the test with Streptococcus; in test [5]) was > 150 µM (not active) in each case.

The values above are taken from ChEMBL document CHEMBL1201862, “PubChem BioAssay data set” (2004).
